Reference: patent publication US20230183179A1, “NOVEL CELL METABOLISM MODULATING COMPOUNDS AND USES THEREOF” (CRESCENTA BIOSCIENCES, priority 2020, published 2023)

Tests used:
[1] = test system: differentiated 3T3-L1 mouse adipocyte cells; assay: Adipocyte glucose consumption in differentiated 3T3-L1 cells (colorimetric glucose assay of the medium); assay type: cell-based; conditions: 3T3-L1, 24 h, compound 10 μM, loss of glucose from culture medium, mean fold change (compound/DMSO)
Summary of the method: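 Differentiated 3T3-L1 mouse adipocytes (rosiglitazone/dexamethasone/IBMX/insulin induction, day 11) treated 24 h with compounds at 10 μM, 0.1% DMSO final. Medium glucose measured colorimetrically; consumption taken as glucose loss from medium versus cell-free control, expressed as mean fold change compound/DMSO ±SD.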

[2] = molecular target: T1, His6 tagged human recombinant FABP4 (Homo sapiens, UniProt P15090); assay: FABP4 TR-FRET assay: displacement of fluorescent fatty acid BODIPY FL C12; conditions: inhibition of BODIPY FL C12 binding to His6-FABP4; 1.2 μL of 1.085 mM compound in DMSO per well; triplicates, mean percent inhibition
T1 construct: purchased Cayman Chemicals 10009549
Summary of the method: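 TR-FRET displacement of BODIPY FL C12 from His6-FABP4 bound by Tb-anti-His6 antibody, in Tris pH 7.4 buffer with γ-globulins, NP-40 and DTT; compound stock 1.085 mM in DMSO. Read after 10 min at room temperature as 520/615 nm ratio; mean % inhibition versus DMSO from triplicates.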

T1 sequence (P15090 whole entry): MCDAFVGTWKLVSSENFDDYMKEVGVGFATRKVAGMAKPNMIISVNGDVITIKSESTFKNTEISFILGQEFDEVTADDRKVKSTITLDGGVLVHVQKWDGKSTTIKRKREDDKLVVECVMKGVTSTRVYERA

Compound	fold induction at 10 µM [1]	inhibition at 1085 µM (stock) [2]
CN(CC(=O)O)c1cc(-c2ccccc2)c2cc(CCCc3ccccc3)ccc2n1 [2-{methyl[4-phenyl-6-(3-phenylpropyl)quinolin-2-yl]amino}acetic acid]	1.31	97%
CCCc1cccc(-c2ccc3nc(N(C)CC(=O)O)cc(-c4ccccc4)c3c2)c1 [2-{methyl[4-phenyl-6-(3-propylphenyl)quinolin-2-yl]amino}acetic acid]	1.07	61.2%
CCCCc1ccc2nc(N(C)CC(C)C(=O)O)cc(-c3ccccc3)c2c1 (centres unmarked) [3-[(6-butyl-4-phenylquinolin-2-yl)(methyl)amino]-2-methylpropanoic acid]	1.34	74.7%
CCCCc1ccc2nc(N(C)C(C)CC(=O)O)cc(-c3ccccc3)c2c1 (centres unmarked) [3-[(6-butyl-4-phenylquinolin-2-yl)(methyl)amino]butanoic acid]	1.04	103%
CCCCCCc1ccc2nc(N(C)CC(C)C(=O)O)cc(-c3ccccc3)c2c1 (centres unmarked) [3-[(6-hexyl-4-phenylquinolin-2-yl)(methyl)amino]-2-methylpropanoic acid]	1.31	89.7%
CCCCCCc1ccc2nc(N(C)CC(C)C(=O)O)cc(-c3cccc(C#N)c3)c2c1 (centres unmarked) [3-{[4-(3-cyanophenyl)-6-hexylquinolin-2-yl](methyl)amino}-2-methylpropanoic acid]	1.3	56.5%
CCCCCCc1ccc2nc(N(C)C(C)CC(=O)O)cc(-c3cccc(C#N)c3)c2c1 (centres unmarked) [3-{[4-(3-cyanophenyl)-6-hexylquinolin-2-yl](methyl)amino}butanoic acid]	1.03	77.9%
CCCCCCc1ccc2nc(N(C)CC(C)C(=O)O)cc(-c3ccc(F)cc3)c2c1 (centres unmarked) [3-{[4-(4-fluorophenyl)-6-hexylquinolin-2-yl](methyl)amino}-2-methylpropanoic acid]	1.31	92.3%
CCCCc1ccc2nc(N(C)CC(C)C(=O)O)cc(-c3cccc(C#N)c3)c2c1 (centres unmarked) [3-{[6-butyl-4-(3-cyanophenyl)quinolin-2-yl](methyl)amino}-2-methylpropanoic acid]	1.21	38.7%
CCCCc1ccc2nc(N(C)CC(C)C(=O)O)cc(-c3ccc(F)cc3)c2c1 (centres unmarked) [3-{[6-butyl-4-(4-fluorophenyl)quinolin-2-yl](methyl)amino}-2-methylpropanoic acid]	1.34	74%
CCCCc1ccc2nc(N(C)CC(C)C(=O)O)cc(-c3cccnc3)c2c1 (centres unmarked) [3-{[6-butyl-4-(pyridin-3-yl)quinolin-2-yl](methyl)amino}-2-methylpropanoic acid]	1.13	46.4%
CCCCCCc1ccc2nc(N(C)CC(C)C(=O)O)cc(-c3cccnc3)c2c1 (centres unmarked) [3-{[6-hexyl-4-(pyridin-3-yl)quinolin-2-yl](methyl)amino}-2-methylpropanoic acid]	1.16	54.7%
CCCCc1ccc2nc(N3CCOC(C(=O)O)C3)cc(-c3ccccc3)c2c1 (centres unmarked) [4-(6-butyl-4-phenylquinolin-2-yl)morpholine-2-carboxylic acid]	1.07	21.1%
CCCCCCc1ccc2nc(N3CCOC(C(=O)O)C3)cc(-c3ccccc3)c2c1 (centres unmarked) [4-(6-hexyl-4-phenylquinolin-2-yl)morpholine-2-carboxylic acid]	1.22	36.1%
CC(C)(c1cc(-c2ccccc2)c2cc(CCc3ccccc3)ccc2n1)c1nnn[nH]1 [4-phenyl-6-(2-phenylethyl)-2-[2-(1H-1,2,3,4-tetrazol-5-yl)propan-2-yl]quinoline]	1.2	75%
O=C(O)C1CC(=O)N(c2cc(-c3ccccc3)c3cc(CCc4ccccc4)ccc3n2)C1 (centres unmarked) [5-oxo-1-[4-phenyl-6-(2-phenylethyl)quinolin-2-yl]pyrrolidine-3-carboxylic acid]	1.24	7.89%
O=C1NC(=O)C(Cc2cc(-c3ccccc3)c3cc(CCc4ccccc4)ccc3n2)S1 (centres unmarked) [5-{[4-phenyl-6-(2-phenylethyl)quinolin-2-yl]methyl}-1,3-thiazolidine-2,4-dione]	1.45	73.5%
CCCCc1ccc2nc(OCC(=O)O)c(C(=O)O)c(-c3ccccc3)c2c1 [6-butyl-2-(carboxymethoxy)-4-phenylquinoline-3-carboxylic acid]	0.99	44.6%
CCCCc1ccc2nc(N3CCCCC3)cc(-c3ccccc3)c2c1 [6-butyl-4-phenyl-2-(piperidin-1-yl)quinoline]	0.99	56.5%
Clc1ccc2nc(N3CCCCC3)cc(-c3ccccc3)c2c1 [6-chloro-4-phenyl-2-(piperidin-1-yl)quinoline]	0.99	64.3%
CCCCCCc1ccc2nc(N3CCCCC3)cc(-c3ccccc3)c2c1 [6-hexyl-4-phenyl-2-(piperidin-1-yl)quinoline]	1.18	46.3%
CCCCCCc1ccc2nc(N(C)Cc3nn[nH]n3)cc(-c3ccccc3)c2c1 [6-hexyl-N-methyl-4-phenyl-N-[(2H-1,2,3,4-tetrazol-5-yl)methyl]quinolin-2-amine]	1.52	37.8%
CCCCc1ccc2nc(N(C)C(C(=O)O)C(C)C)cc(-c3cccc(C#N)c3)c2c1 (centres unmarked) [N-(6-butyl-4-(3-cyanophenyl)quinolin-2-yl)-N-methylvaline?]	1.18	21%
CCCCCCc1ccc2nc(N(c3nnn[nH]3)C3CC3)cc(-c3ccccc3)c2c1 [N-cyclopropyl-6-hexyl-4-phenyl-N-(1H-1,2,3,4-tetrazol-5-yl)quinolin-2-amine]	1.18	84%
CN(c1cc(-c2ccccc2)c2cc(CCc3ccccc3)ccc2n1)c1nnn[nH]1 [N-methyl-4-phenyl-6-(2-phenylethyl)-N-(1H-1,2,3,4-tetrazol-5-yl)quinolin-2-amine]	1.17	76.3%
